Four compounds from ChEMBL document CHEMBL2034954, “Synthesis and antimycobacterial activity of novel 1,3-dimethylisocyanurate derivatives” (Eur J Med Chem, 2012) can be followed below.

The structures appear in SMILES notation. Calls of active or inactive are those of the source. No cut-off for these calls is given here.

The test system of assay [1] is Mycobacterium tuberculosis. Put plainly: Antitubercular activity against multidrug-resistant Mycobacterium tuberculosis clinical isolate at 10 ug/mL by radiometric growth assay. The format is functional, organism-based.
Assay [2] deals with Mycobacterium tuberculosis. Put plainly: Antitubercular activity against multidrug-resistant Mycobacterium tuberculosis clinical isolate at 1 ug/mL by radiometric growth assay. It is filed as functional, organism-based.
Assay [3] has as its system Mycobacterium tuberculosis. Put plainly: Antitubercular activity against multidrug-resistant Mycobacterium tuberculosis clinical isolate at 80 ug/mL by radiometric growth assay. It is filed as functional, organism-based.
Assay [4] concerns Mycobacterium tuberculosis. Put plainly: Antitubercular activity against multidrug-resistant Mycobacterium tuberculosis clinical isolate at 40 ug/mL by radiometric growth assay. It is filed as functional, organism-based.
In assay [5] the test system is Mycobacterium tuberculosis. Put plainly: Antitubercular activity against multidrug-resistant Mycobacterium tuberculosis clinical isolate assessed as number of colonies at 1 ug/mL by radiometric growth assay. It is filed as functional.
The test system of assay [6] is Mycobacterium tuberculosis. Put plainly: Antitubercular activity against multidrug-resistant Mycobacterium tuberculosis clinical isolate assessed as number of colonies at 10 ug/mL by radiometric growth assay. The format is functional.

Take `CC1COc2c(N3CCN(C)CC3)c(F)cc3c(=O)c(C(=O)O)cn1c23` (configuration not stated): the result in assay [1] was inactive.

As to `NNC(=O)c1ccncc1` [ISONIAZID], the result in assay [1] and in assay [2] was inactive. With `CO[C@H]1/C=C/O[C@@]2(C)Oc3c(C)c(O)c4c(O)c(c(/C=N/N5CCN(C)CC5)c(O)c4c3C2=O)NC(=O)/C(C)=C\C=C\[C@H](C)[C@H](O)[C@@H](C)[C@@H](O)[C@@H](C)[C@H](OC(C)=O)[C@@H]1C`, the result in assay [3] and in assay [4] was inactive.

`Cn1c(=O)n(C)c(=O)n(CCCCC[S+]([O-])CC(=O)NN)c1=O` (configuration not stated): the values for the CFU in assay [5] and in assay [6] were 15 and 10, respectively.
